The values below come from US8551999B2, “Heterocyclic compound and pharmaceutical composition thereof” (Otsuka Pharmaceutical Co., Ltd., priority 2007, dated 2013).

SMILES strings stand for the structures.

A word on the melting point: it is the temperature, or range, at which the solid turns liquid. For the molecule `CC(C)c1ccc(CN2CCN(C(=O)c3cc4cc(Oc5ccc(N(C)C(=O)c6ccc(C(F)(F)F)cc6)cn5)ccc4n3C)CC2)cc1.O=C(O)/C=C\C(=O)O` [Example 412, N-(6-{2-[4-(4-Isopropylbenzyl)piperazine-1-carbonyl]-1-methyl-1H-indol-5-yloxy}pyridin-3-yl)-N-methyl-4-trifluoromethylbenzamide maleate], the melting point fell in the range of 129 to 131 °C.

Consider `CCCOc1ccc(CN2CCN(C(=O)c3cc4cc(Oc5ccc(N(C)C(=O)c6ccc(C(F)(F)F)cc6)cn5)ccc4n3C)CC2)cc1.O=C(O)/C=C\C(=O)O` [Example 413, N-Methyl-N-(6-{1-methyl-2-[4-(4-propoxybenzyl)piperazine-1-carbonyl]-1H-indol-5-yloxy}pyridin-3-yl)-4-trifluoromethyl-benzamide maleate], for which the melting point is 144 to 147 °C.

Regarding `CCCCCCCCOc1ccc(CN2CCN(C(=O)c3cc4cc(Oc5ccc(N(C)C(=O)c6ccc(C(F)(F)F)cc6)cn5)ccc4n3C)CC2)cc1.O=C(O)/C=C\C(=O)O` [Example 414, N-Methyl-N-(6-{1-methyl-2-[4-(4-octyloxybenzyl)piperazine-1-carbonyl]-1H-indol-5-yloxy}pyridin-3-yl)-4-trifluoromethyl-benzamide maleate], the melting point fell in the range of 125 to 126 °C.

As to `COCc1ccc(CN2CCN(C(=O)c3cc4cc(Oc5ccc(N(C)C(=O)c6ccc(C(F)(F)F)cc6)cn5)ccc4n3C)CC2)cc1.O=C(O)/C=C\C(=O)O` [Example 415, N-(6-{2-[4-(4-Methoxymethylbenzyl)piperazine-1-carbonyl]-1-methyl-1H-indol-5-yloxy}pyridin-3-yl)-N-methyl-4-trifluoromethyl-benzamide maleate], the melting point was in the range of 137 to 139 °C.

For the molecule `CC(C)Cc1ccc(CN2CCN(C(=O)c3cc4cc(Oc5ccc(N(C)C(=O)c6ccc(C(F)(F)F)cc6)cn5)ccc4n3C)CC2)cc1.O=C(O)/C=C\C(=O)O` [Example 416, N-(6-{2-[4-(4-Isobutylbenzyl)piperazine-1-carbonyl]-1-methyl-1H-indol-5-yloxy}pyridin-3-yl)-N-methyl-4-trifluoromethylbenzamide maleate], the melting point is 147 to 149 °C.

`Br.CCOc1cccc(CN2CCN(C(=O)c3cc4ccc(Oc5ccc(N(C)C(=O)c6ccc(C(F)(F)F)cc6)cn5)cc4n3C)CC2)c1` [Example 418, N-(6-{2-[4-(3-Ethoxybenzyl)piperazine-1-carbonyl]-1-methyl-1H-indol-6-yloxy}pyridin-3-yl)-N-methyl-4-trifluoromethylbenzamide hydrobromide] had a melting point of 234 to 236 °C.

Consider `Br.CCOc1ccc(CN2CCN(C(=O)c3cc4ccc(Oc5ccc(N(C)C(=O)c6ccc(C(F)(F)F)cc6)cn5)cc4n3C)CC2)cc1` [Example 419, N-(6-{2-[4-(4-Ethoxybenzyl)piperazine-1-carbonyl]-1-methyl-1H-indol-6-yloxy}pyridin-3-yl)-N-methyl-4-trifluoromethylbenzamide hydrobromide], for which the melting point is 241 to 243 °C.

In turn, `Br.CN(C(=O)c1ccc(C(F)(F)F)cc1)c1ccc(Oc2ccc3cc(C(=O)N4CCN(Cc5ccc(OC(F)F)cc5)CC4)n(C)c3c2)nc1` [Example 422, N-(6-{2-[4-(4-Difluoromethoxybenzyl)piperazine-1-carbonyl]-1-methyl-1H-indol-6-yloxy}pyridin-3-yl)-N-methyl-4-trifluoromethyl-benzamide hydrobromide] yielded a melting point of 229 to 230 °C.

The molecule `CCOc1ccc(CN2CCN(C(=O)c3cc4cc(Oc5ccc(N(C)C(=O)c6ccc(C(F)(F)F)cc6)cn5)ccc4n3C)CC2)cn1.O=C(O)/C=C\C(=O)O` [Example 423, N-(6-{2-[4-(6-Ethoxypyridin-3-ylmethyl)piperazine-1-carbonyl]-1-methyl-1H-indol-5-yloxy}pyridin-3-yl)-N-methyl-4-trifluoromethyl-benzamide maleate] displayed a melting point of 149 to 151 °C.

As for `Br.Cc1c(Oc2ccc(N(C)C(=O)c3ccc(C(F)(F)F)cc3)cn2)ccc2c1cc(C(=O)N1CCN(Cc3ccc(C#N)cc3)CC1)n2C` [Example 425, N-(6-{2-[4-(4-Cyanobenzyl)piperazine-1-carbonyl]-1,4-dimethyl-1H-indol-5-yloxy}pyridin-3-yl)-N-methyl-4-trifluoromethylbenzamide hydrobromide], the melting point was 249 to 252 °C.

As for `COc1ccc(CN2CCN(C(=O)c3cc4c(C)c(Oc5ccc(N(C)C(=O)c6ccc(C(F)(F)F)cc6)cn5)ccc4n3C)CC2)cc1` [Example 426, N-(6-{2-[4-(4-Methoxybenzyl)piperazine-1-carbonyl]-1,4-dimethyl-1H-indol-5-yloxy}pyridin-3-yl)-N-methyl-4-trifluoromethyl-benzamide], the melting point lay within 184 to 186 °C.

For the molecule `Br.CCOc1ccc(CN2CCN(C(=O)c3cc4c(C)c(Oc5ccc(N(C)C(=O)c6ccc(C(F)(F)F)cc6)cn5)ccc4n3C)CC2)cc1` [Example 427, N-(6-{2-[4-(4-Ethoxybenzyl)piperazine-1-carbonyl]-1,4-dimethyl-1H-indol-5-yloxy}pyridin-3-yl)-N-methyl-4-trifluoromethyl-benzamide hydrobromide], the melting point fell in the range of 224 to 226 °C.

`Br.CC(C)c1ccc(CN2CCN(C(=O)c3cc4ccc(Oc5ccc(N(C)C(=O)c6ccc(C(F)(F)F)cc6)cn5)cc4n3C)CC2)cc1` [Example 429, N-(6-{2-[4-(4-Isopropylbenzyl)piperazine-1-carbonyl]-1-methyl-1H-indol-6-yloxy}pyridin-3-yl)-N-methyl-4-trifluoromethylbenzamide hydrobromide] yielded a melting point of 255 to 258 °C.

The molecule `Br.CC(C)Cc1ccc(CN2CCN(C(=O)c3cc4ccc(Oc5ccc(N(C)C(=O)c6ccc(C(F)(F)F)cc6)cn5)cc4n3C)CC2)cc1` [Example 430, N-(6-{2-[4-(4-Isobutylbenzyl)piperazine-1-carbonyl]-1-methyl-1H-indol-6-yloxy}pyridin-3-yl)-N-methyl-4-trifluoromethylbenzamide hydrobromide] showed a melting point of 262 to 265 °C.

Molecule `Br.CCCc1ccc(CN2CCN(C(=O)c3cc4ccc(Oc5ccc(N(C)C(=O)c6ccc(C(F)(F)F)cc6)cn5)cc4n3C)CC2)cc1` [Example 431, N-Methyl-N-(6-{1-methyl-2-[4-(4-propylbenzyl)piperazine-1-carbonyl]-1H-indol-6-yloxy}pyridin-3-yl)-4-trifluoromethyl-benzamide hydrobromide] came in with a melting point of 255 to 257 °C.

With `Br.Br.CN(C(=O)c1ccc(C(F)(F)F)cc1)c1ccc(Oc2ccc3c(c2)cc(C(=O)N2CCN(Cc4ccc(OCC(F)(F)F)cc4)CC2)n3C)nc1` [Example 432, N-Methyl-N-[6-(1-methyl-2-{4-[4-(2,2,2-trifluoroethoxy)benzyl]-piperazine-1-carbonyl}-1H-indol-5-yloxy)pyridin-3-yl]-4-tri-fluoromethylbenzamide dihydrobromide], the melting point is 211 to 212 °C.

In the case of `COc1ccc(CN2CCN(C(=O)c3cc4cc(Oc5cc(C)c(NC(=O)c6ccc(C(F)(F)F)cc6)cn5)ccc4n3C)CC2)cc1.O=C(O)C(=O)O` [Example 433, N-(6-{2-[4-(4-Methoxybenzyl)piperazine-1-carbonyl]-1-methyl-1H-indol-5-yloxy}-4-methylpyridin-3-yl)-4-trifluoromethylbenzamide oxalate], the melting point is 144 to 147 °C.
